# Results taken from article PMC8495455, “Discovery of a transdermally deliverable pentapeptide for activating AdipoR1 to promote hair growth” (EMBO Molecular Medicine, 2021).
# How the values were obtained:
# [1] = Transdermal delivery in ex vivo human skin tissue culture, qualitative MS of dermal lysate; type: in vitro ADME; settings: 50 mM in DMSO placed daily, 5 days, 37°C, dermal lysate in 50% methanol
# Text: Next, we checked whether topically applied P5 can be delivered into human skin using ex vivo skin tissue culture model (Fig EV4A) (Haslam et al, [2018]). After topical application of vehicle or P5 on the ex vivo skin tissue, the dermal lysate of each tissue was examined by the qualitative mass spectrometry (MS). […] To trace the origin of P5, we used isotope‐marked P5 (P5*), in which carbon (^12C) atoms of Gly were substituted with isotope carbon atoms (^13C) increasing the molecular weight by 2 compared to that of original P5 (Fig EV4B). […] Collectively, P5 can be transdermally delivered into human skin.
# Topical application of peptides on ex vivo skin study was performed as described previously (Haslam et al, [2018]). Briefly, full thickness skin tissue from cadavers within 48 h after death was acquired and biopsied using a 6 mm punch. The skin tissue was acclimatized in supplemented Williams’ E media with L‐glutamine (2 mM), penicillin‐streptomycin solution (1×), hydrocortisone (10 ng/ml), and insulin (100 ng/ml) overnight at 37°C in a 5% CO2 atmosphere. After acclimatization, the skin tissue was carefully pulled through a cell strainer with the epidermis exposed to the air, leaving the dermis submerged in the culture media. […] The lysate was qualitatively analyzed by a MS system (API 4000 Q‐trap; AB SCIEX).
# [2] = tested on: PDGFA protein; assay: Growth factor protein quantitation in DP cell medium, PDGFA; type: cell-based, human; settings: for protein_PDGFA: DP cell medium
# Text: (§1) Next, we investigated the downstream effects of P5 on hair growth factor genes and proteins in DP cells. […] We tested whether P5 can also increase the mRNA levels and proteins of hair growth factors in DP cells: IGF‐1, VEGF, HGF, platelet‐derived growth factor alpha (PDGFA), and fibroblast growth factor (FGF) 7, which are known to induce or maintain the anagen phase of the hair cycle (Jindo et al, [1994]; Philpott et al, [1994]; Yano et al, [2001]; Jang, [2005]; Tomita et al, [2006]; Iino et al, [2007]).
# (§2) Human DP cells were grown on a 100‐mm cell culture dish to 100% confluency. After washed by PBS three times, the cells were cultured with serum‐free DMEM and treated with P5. After 48 h, the medium was collected and filtered by a […]. The filtrate was then concentrated using a centrifugal concentrator (Vivaspin 6, 10‐kDa molecular weight cutoff, centrifuged 2,600 g at 4°C for 13 min, Sartorius Stedim Biotech). The signals of each protein in the concentrated media were detected and quantified, based on the enzyme‐linked immunosorbent assay (Human Cytokine Antibody Array C2000, RayBiotech).
# [3] = tested on: VEGF protein; assay: Growth factor protein quantitation in DP cell medium, VEGF; type: cell-based, human; settings: for protein_VEGF: DP cell medium
# Text: as §1, §2
# [4] = tested on: HGF protein; assay: Growth factor protein quantitation in DP cell medium, HGF; type: cell-based, human; settings: for protein_HGF: DP cell medium
# Text: as §1, §2
# [5] = tested on: FGF7 mRNA; assay: qRT-PCR growth factor gene expression in DP cells, FGF7; type: cell-based, human; settings: for mRNA_FGF7: DP cells
# Text: as §1
# Total RNA was isolated from P5‐treated DP cells using RNAiso Plus (#9109; TaKaRa). We used the total RNA (1 µg) for cDNA synthesis using a RevertAid First Strand cDNA Synthesis Kit (Thermo Fisher) according to the manufacturer's instructions. The mRNA expression levels were quantified on a 7500 Real‐time PCR System (Thermo Fisher) using TB Green Premix Ex Taq (TaKaRa Bio): human IGF‐1, VEGF, HGF, PDGFA, FGF7, and glyceraldehyde 3‐phosphate dehydrogenase (GAPDH) (Appendix Table S2). The relative expression levels of each gene were determined by the 2^‐ΔΔCT method.
# [6] = P5 5μM, relative to Control = 1, replicate 1
# [7] = P5 5μM, relative to Control = 1, replicate 2
# [8] = P5 5μM, relative to Control = 1, replicate 3
# [9] = P5 25μM, relative to Control = 1, replicate 1
# [10] = P5 25μM, relative to Control = 1, replicate 2
# [11] = P5 25μM, relative to Control = 1, replicate 3
# [12] = P5-treated DP cells, 48 h medium, n = 3
substance,measurement,setting,value
"GLYYF [P5, GST-fused (GST-P5) in pulldown assays]",Detection in skin dermis after topical application (transdermal delivery),[1],qualitatively detected
same,protein_PDGFA,[2]; [6],2.032
same,protein_PDGFA,[2]; [7],1.0925
same,protein_PDGFA,[2]; [8],1.228
same,protein_PDGFA,[2]; [9],3.073
same,protein_PDGFA,[2]; [10],1.25
same,protein_PDGFA,[2]; [11],1.481
same,PDGFA protein expression level,[2]; [12],elevated
same,protein_VEGF,[3]; [6],1.476
same,protein_VEGF,[3]; [7],1.303
same,protein_VEGF,[3]; [8],1.526
same,protein_VEGF,[3]; [9],1.967
same,protein_VEGF,[3]; [10],2.185
same,protein_VEGF,[3]; [11],1.674
same,VEGF protein expression level,[3]; [12],elevated
same,protein_HGF,[4]; [6],1.103
same,protein_HGF,[4]; [7],1.31
same,protein_HGF,[4]; [8],1.677
same,protein_HGF,[4]; [9],1.711
same,protein_HGF,[4]; [10],2.432
same,protein_HGF,[4]; [11],3.924
same,HGF protein expression level,[4]; [12],elevated
same,mRNA_FGF7,[5]; [6],1.288
same,mRNA_FGF7,[5]; [7],1.147
same,mRNA_FGF7,[5]; [8],3.986
same,mRNA_FGF7,"[5]; P5 5μM, relative to Control = 1, replicate 4",1.127
same,mRNA_FGF7,"[5]; P5 5μM, relative to Control = 1, replicate 5",3.017
same,mRNA_FGF7,"[5]; P5 5μM, relative to Control = 1, replicate 6",4.5839
same,mRNA_FGF7,[5]; [9],1.191
same,mRNA_FGF7,[5]; [10],1.18
same,mRNA_FGF7,[5]; [11],4.101
same,mRNA_FGF7,"[5]; P5 25μM, relative to Control = 1, replicate 4",1.133
same,mRNA_FGF7,"[5]; P5 25μM, relative to Control = 1, replicate 5",2.672
same,mRNA_FGF7,"[5]; P5 25μM, relative to Control = 1, replicate 6",4.897
same,FGF7 mRNA expression,"[5]; P5-treated DP cells, n = 6",significantly increased
